In patent publication US20220017971A1, “COMPOSITION FOR PREDICTING CHEMOTHERAPY RESISTANCE OF OVARIAN CANCER AND USE THEREOF” (KOOKMIN UNIVERSITY INDUSTRY ACADEMY COOPERATION FOUNDATION, priority 2020, published 2022):

Assays:
Assay type in all cases: cell-based
OV90 cells [1] = test: Cell proliferation capacity using BrdU, OV90; settings: for proliferative capability (BrdU incorporation): agent alone; for proliferative capability reduced by cisplatin (BrdU): combined treatment with cisplatin; for proliferative capability reduced by paclitaxel (BrdU): combined treatment with paclitaxel
Experimental: (§1) Epithelial ovarian cancer OV90 and ES2 cells were cultured in 6 wells, and a non-specific control and target oligonucleotide were transfected using Lipofectamine 2000 (Invitrogen). All oligonucelotides were synthesized by to Bioneer. Oligonucleotide and Lipofectamine 2000 were diluted in Opti-MEM reduced serum medium (Gibco, Cat No: 32985070) and then treated with cells. After 6 h of incubation at 37° C. in a 5% CO2 incubator, the medium was replaced with a medium containing FBS.
(§2) An experiment was performed according to the manufacturer's manual using the BrdU kit (Cat No: 1167229001, Roche) to confirm the change in the proliferation ability of epithelial ovarian cancer cells. After 48 hours of incubation, 10 μM BrdU was additionally added to each well and incubated for 2 hours at 37° C./5% CO2 in an incubator. After labeling the epithelial ovarian cancer cells with BrdU and fixing the cells, they were incubated with anti-BrdU-POD solution at room temperature for 90 minutes, and then washed three times. Finally, the cells were reacted with 100 μl of 3,3′, 5,5′-tetramethylbenzidine substrate, and the cell proliferation ability was analyzed by measuring the absorbance at 370 nm and 492 nm using an ELISA reader.

ES2 cells [2] = test: Cell proliferation capacity using BrdU, ES2; settings: for proliferative capability (BrdU incorporation): agent alone; for proliferative capability reduced by cisplatin (BrdU): combined treatment with cisplatin; for proliferative capability reduced by paclitaxel (BrdU): combined treatment with paclitaxel
Experimental: as §1, §2

PCNA [3] = test: PCNA expression (qPCR, immunofluorescence), OV90; settings: OV90 cells; for PCNA expression reduced by cisplatin: combined treatment with cisplatin; for PCNA expression: anticancer drug alone
Experimental: (§3) cDNA was synthesized from 1 μg of RNA using AccuPower RT PreMix (Bioneer, Daejeon, Korea). Gene expression was measured using SYBR Green (Sigma) and the StepOnePlus Real-Time PCR system (Applied Biosystems, Foster City, Calif.). PCR conditions were incubated at 95° C. for 3 minutes, then 95° C. 30 seconds, 60° C. 30 seconds, and 72° C. 3 minutes conditions were amplified 40 times, and normalized based on the GAPDH expression level.
(§4) Transfected epithelial ovarian cancer cells were fixed with methanol for 10 minutes and treated with PCNA antibody diluted in 1:100. After that, after washing twice with PBS containing 0.1% bovine serum albumin (BSA), the secondary antibody goat anti-mouse IgG Alexa 488 (catalog number: A11017, Invitrogen, Carlsbad, Calif.) was added to antibody dilution buffer so as to be diluted in 1:200 and incubated for 1 hour at room temperature.
(§5) After washing the cells with 0.1% BSA-PBS, DAPI staining was additionally performed to allow simultaneous observation of the target protein as well as the nucleus. After finishing the experiment, cells were observed and photographed using an LSM710 (Carl Zeiss, Thornwood, N.Y., USA) confocal microscope.

PCNA [4] = test: PCNA expression (qPCR, immunofluorescence), ES2; settings: ES2 cells; for PCNA expression reduced by cisplatin: combined treatment with cisplatin; for PCNA expression: anticancer drug alone
Experimental: as §3, §4, §5

LHX6 [5] = test: LHX6 gene expression after oligonucleotide transfection (qPCR), OV90; settings: OV90 cells
Experimental: as §3, §1
(§6) Next, to analyze whether miR-214-3p can alter the characteristics of epithelial ovarian cancer cells, OV90 and ES2 cells, epithelial ovarian cancer cell lines, were transfected with a mimic for miR-214 and an inhibitor for miR-214-3p (SEQ ID NO: 2: 5′-ACUGCCUGUCUGUGCCUGCUGU-3′).

LHX6 [6] = test: LHX6 gene expression after oligonucleotide transfection (qPCR), ES2; settings: ES2 cells
Experimental: as §3, §1, §6

OV90 cells [7] = test: Apoptosis by annexin V and propidium iodide staining, OV90
Experimental: (§7) In order to confirm the change in the apoptosis effect of epithelial ovarian cancer cells, an experiment was performed using the FITC Annexin V cell death diagnostic kit I (BD Biosciences). Using trypsin, the cells were removed from the culture dish, washed with PBS, and the cells were slowly mixed using 1 mL of 1× binding buffer and then centrifuged to obtain a cell pellet.
(§8) Next, the cells were suspended and cultured with 200 μL of 1× binding buffer, put into 100 μL of a brown 1.5 mL tube, and cells were mixed with 5 μL of Annexin V and 5 μL of PI, and then stained at room temperature for 15 minutes. After that, 400 μL of 1×binding buffer was added and the stained solution was transferred to a 5 mL FACS tube, and then the fluorescence intensity was analyzed using a flow cytometer to measure the number of apoptotic cells.

ES2 cells [8] = test: Apoptosis by annexin V and propidium iodide staining, ES2
Experimental: as §7, §8

OV90 cells [9] = test: Cell cycle analysis using propidium iodide staining, OV90; settings: 48 hours
Experimental: (§9) In order to confirm the cell cycle change of ovarian cancer cells by the miR-214-3p inhibitor, 5×10^5 cells were cultured in 6 wells until 70 to 80% abundance appeared. Thereafter, miR-214-3p inhibitors were treated in a dose-dependent manner (10, 20, 40 nM) and cultured in a 37° C./5% CO2 incubator for 48 hours. Then, using trypsin, the cells were removed from the culture dish, washed with PBS, and the cells were slowly mixed using 1 mL of 1× binding buffer, and then centrifuged to obtain a cell pellet.
(§10) Next, the cells were suspended and cultured with 200 μL of 1× binding buffer, put in 100 μL in a brown 1.5 mL tube, and 5 μL of RNase and 5 μL of PI were mixed together to stain the cells for 1 hour at room temperature. After that, 400 μL of 1× binding buffer was added, the stained solution was transferred to a 5 mL FACS tube, and the fluorescence intensity was analyzed using a flow cytometer to measure the number of cells corresponding to each cell cycle.

ES2 cells [10] = test: Cell cycle analysis using propidium iodide staining, ES2; settings: 48 hours
Experimental: as §9, §10

OV90 cells [11] = test: Cell migration, OV90
ES2 cells [12] = test: Cell migration, ES2
OV90 cells [13] = test: Intracellular ROS measurement using DCFH-DA, OV90
Experimental: (§11) ES2 and OV90 cells were collected through trypsin and centrifuged to obtain a cell pellet. After washing once with PBS, 10 μM of DCFH-DA was incubated in an incubator at 37° C. for 30 minutes. Thereafter, the cells were washed twice with PBS, and a miR-214-3p inhibitor was added thereto and incubated in an incubator at 37° C. for 1 hour. Treated cells were washed again with PBS and analyzed for DCF fluorescence intensity using flow cytometry.

ES2 cells [14] = test: Intracellular ROS measurement using DCFH-DA, ES2
Experimental: as §11

OV90 cells [15] = test: Mitochondrial membrane potential by JC-1 staining, OV90
Experimental: (§12) JC-1 mitochondrial membrane potential (MMP) changes were measured using a mitochondria staining kit (Cat No: CS0390, Sigma-Aldrich). 5×10^5 ES2 and OV90 cells were each aliquoted into 6 wells, and the cells were cultured until 70 to 80% abundance of the culture dish appeared. Thereafter, the miR-214-3p inhibitor was dose-dependently treated and cultured in a 37° C./5% CO2 incubator for 48 hours. Thereafter, cells were collected from the culture dish using trypsin and centrifuged to obtain a cell pellet. Cells were dissolved in JC-1 staining solution and incubated for 20 minutes at 37° C./5% CO2 incubator. The stained cells were centrifuged again, washed with 1×JC-1 staining buffer, and then fluorescence intensity was analyzed using a flow cytometer.

ES2 cells [16] = test: Mitochondrial membrane potential by JC-1 staining, ES2
Experimental: as §12

OV90 cells [17] = test: Intracellular calcium concentration by fluo-4 staining, OV90
Experimental: (§13) To check the intracellular calcium concentration of ovarian cancer cells, 3 μM of fluo-4 acetoxymethyl ester (AM) (Invitrogen) was used. First, 5×10^5 cells were cultured in 6 wells. Thereafter, the miR-214-3p inhibitor was dose-dependently treated and cultured in a 37° C./5% CO2 incubator for 48 hours. After that, cells were removed from the culture dish using trypsin, washed with PBS, and stained with 3 μM fluo-4 in an incubator at 37° C./5% CO2 for 20 minutes, washed with PBS, and then the stained solution was transferred into a FACS tube and the fluorescence intensity was analyzed using a flow cytometer to […].

ES2 cells [18] = test: Intracellular calcium concentration by fluo-4 staining, ES2
Experimental: as §13

[19] = combined treatment with paclitaxel

Row | Molecule | proliferative capability (BrdU incorporation) (OV90 cells [1]) | proliferative capability reduced by cisplatin (BrdU) (OV90 cells [1]) | proliferative capability reduced by paclitaxel (BrdU) (OV90 cells [1]) | proliferative capability (BrdU incorporation) (ES2 cells [2]) | proliferative capability reduced by cisplatin (BrdU) (ES2 cells [2]) | proliferative capability reduced by paclitaxel (BrdU) (ES2 cells [2]) | PCNA expression reduced by cisplatin (PCNA [3]) | PCNA expression reduced by cisplatin (PCNA [4]) | PCNA expression (PCNA [3]) | PCNA expression (PCNA [4]) | also measured
1 | siLHX6: siRNA that inhibits the expression of LHX6 (SEQ ID NO: 3 sense 5′-GAG UCA UCC UUU UUC AGU A-3′, SEQ ID NO: 4 antisense) (sense GAGUCAUCCUUUUUCAGUA; antisense UACUGAAAAAGGAUGACUC; listed as RNA, chemistry not given here) | significantly increased | restored | restored | significantly increased | restored | restored | restored | restored | – | – | increase of proliferative levels (OV90 cells [1]; 40 nM): 1.4 fold; increase of proliferative levels (ES2 cells [2]; 40 nM): 1.4 fold; mRNA and protein level expression of PCNA (PCNA [3]; qPCR and immunofluorescence): significantly increased; mRNA and protein level expression of PCNA (PCNA [4]; qPCR and immunofluorescence): significantly increased
2 | CC(=O)O[C@H]1C(=O)[C@@]2(C)[C@H]([C@H](OC(=O)c3ccccc3)[C@]3(O)C[C@H](OC(=O)[C@H](O)[C@@H](NC(=O)c4ccccc4)c4ccccc4)C(C)=C1C3(C)C)[C@]1(OC(C)=O)CO[C@@H]1C[C@@H]2O [paclitaxel] | reduced | – | – | reduced | – | – | – | – | reduced | reduced | –
3 | N.N.[Cl][Pt][Cl] [cisplatin] | reduced | – | – | reduced | – | – | – | – | significantly reduced | significantly reduced | –
4 | miR-214-3p inhibitor: inhibitor for miR-214-3p (SEQ ID NO: 2: 5′-ACUGCCUGUCUGUGCCUGCUGU-3′) (ACUGCCUGUCUGUGCCUGCUGU; listed as RNA, chemistry not given here) | inhibit the proliferative capability | further reduced | further reduced | inhibit the proliferative capability | further reduced | further reduced | further decreased | further decreased | – | – | expression of the target gene LHX6 (LHX6 [5]): increased; expression of the target gene LHX6 (LHX6 [6]): increased; PCNA expression reduced by paclitaxel (PCNA [3]; [19]): further decreased; PCNA expression reduced by paclitaxel (PCNA [4]; [19]): further decreased; increase of apoptotic cells (OV90 cells [7]; 40 nM, p<0.001): 2.6 fold; apoptotic cell death compared to the control group (OV90 cells [7]; transfection): significantly increased; increase of apoptotic cells (ES2 cells [8]; 40 nM, p<0.001): 1.7 fold; apoptotic cell death compared to the control group (ES2 cells [8]; transfection): significantly increased; sub-G1 of the cell cycle (OV90 cells [9]): increasing; sub-G1 of the cell cycle (ES2 cells [10]): increasing; cell migration (OV90 cells [11]): reduced; cell migration (ES2 cells [12]): reduced; reactive oxygen species (OV90 cells [13]): increased; reactive oxygen species (ES2 cells [14]): increased; mitochondrial membrane potential (OV90 cells [15]): induced a change; mitochondrial membrane potential (ES2 cells [16]): induced a change; intracellular calcium ions (OV90 cells [17]): increased; intracellular calcium ions (ES2 cells [18]): increased
